The results in this text go back to US5354767A, “Renin inhibiting polyhydroxy-monoamides” (Bio-Mega, Inc., priority 1991, dated 1994).

Structures are written as SMILES.

The IC50 is the concentration that gives 50% inhibition.

In the first test the target is T1, human renin (Homo sapiens, UniProt P00797).
T1 construct: A human plasma pool is used as the source of both the substrate (angiotensinogen) and the enzyme (renin); from tissue; host or cells: human plasma pool
T1 sequence (P00797 67-406): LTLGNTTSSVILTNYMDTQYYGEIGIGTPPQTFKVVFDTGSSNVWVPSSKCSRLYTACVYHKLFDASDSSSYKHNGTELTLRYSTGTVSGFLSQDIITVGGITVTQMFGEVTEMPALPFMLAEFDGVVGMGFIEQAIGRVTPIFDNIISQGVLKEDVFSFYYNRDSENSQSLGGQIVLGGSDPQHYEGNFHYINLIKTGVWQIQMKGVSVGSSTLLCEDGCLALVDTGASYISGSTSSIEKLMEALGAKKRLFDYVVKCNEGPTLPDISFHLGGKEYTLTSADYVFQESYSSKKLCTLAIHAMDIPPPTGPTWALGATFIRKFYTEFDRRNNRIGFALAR
Briefly: Plasma renin assay (angiotensin I generated in human plasma pool, RIA). The class given is biochemical. Conditions: human plasma pool as source of renin and angiotensinogen; pH 6.0; 2 h at 37°; 1% dimethylsulfoxide. The procedure:
The assay is performed as follows: The test compound (i.e. the inhibitor) is dissolved in dimethylsulfoxide(1mM stock solution) and diluted with an aqueous buffer solution of 270 mM 2-(N-morpholino)ethanesulfonic acid and 1% human serum albumin (pH 5.85, also containing dimercaprol and 8-hydroxyquinoline sulfate in accordance with the instructions of the RIA kit noted below) to give an assay mixture in which the final dimethylsulfoxide content is 1% (v/v).
A human plasma pool is used as the source of both the substrate (angiotensinogen) and the enzyme (renin). The reaction is initiated by the addition of 50 μL of human plasma pool to 50 μL of various concentrations of inhibitor in the 1% dimethylsulfoxide assay buffer. The plasma renin activity is measured by the amount of angiotensin I generated at pH 6.0 following a 2 h incubation at 37°.
Quantitation of angiotensin I is performed by radioinununoassay (RIA kit from New England Nuclear-Dupont, Mississauga, ON, Canada). The enzymatic activity of renin is expressed in ng of angiotensin I generated/mL/2 h. The extent of inhibition of the reaction is determined from the amount of angiotensin I generated in reference to a control prepared without inhibitor. Nonlinear regression analysis is used to calculate the IC50 values, i.e. the molar concentration of the test compound required to cause a 50% inhibition of the enzyme activity.
The following table exemplifies results obtained for compounds of formula 1.
For the compound `CC(C)C[C@H](O)[C@H](O)[C@H](CC1CCCCC1)NC(=O)[C@H](CC1CC1)C[C@H](O)[C@@H](O)Cc1ccccc1` [Title compound of example 2, (2R, 4S, 5S)-N-[1(S)-(Cyclohexylmethyl)-2(R), 3(S)-dihydroxy-5-methylhexyl]-2-(cyclopropylmethyl)-4,5-dihydroxy-6-phenylhexanamide], 22 nM corresponded to half-maximal inhibition (IC50).

In turn, `CC(C)C[C@H](O)[C@H](O)[C@H](CC1CCCCC1)NC(=O)[C@H](CC1CC1)[C@@H](O)C[C@@H](O)Cc1ccccc1` [Title compound of example 13] came in with an IC50 of 175 nM. On the same count and under the same terms, the result for `CC(C)C[C@H](O)[C@H](O)[C@H](CC1CCCCC1)NC(=O)[C@H](CC1CC1)C[C@H](O)[C@H](O)Cc1ccccc1` [Title compound of example 4, (2R, 4S , 5R)-N-[1(S)-(Cyclohexylmethyl)-2(R), 3(S)-dihydroxy-5methylhexyl]-2-(cyclopropylmethyl)-4,5-dihydroxy-6-phenylhexanamide] reads 110 nM; that for `CC(C)C[C@H](O)[C@H](O)[C@H](CC1CCCCC1)NC(=O)[C@H](CC1CC1)C[C@@H](O)[C@@H](O)Cc1ccccc1` [Title compound of example 5, (2R, 4R, 5S)-N-[1(S)-(Cyclohexylmethyl)-2(R), 3(S)-dihydroxy-5-methylhexyl]-2-(cyclopropylmethyl)-4,5-dihydroxy-6-phenylhexanamide], 48 nM; that for `CC(C)C[C@H](O)[C@H](O)[C@H](CC1CCCCC1)NC(=O)[C@H](CC1CC1)[C@H](O)C[C@H](O)Cc1ccccc1` [Title compound of example 11, (2R,3R,5R)-N-[1(S)-(Cyclohexylmethyl)-2(R),3(S)-dihydroxy-5-methylhexyl]-2-(cyclopropylmethyl)-3,5-dihydroxy-6-phenylhexanamide], 260 nM. Compound `CC(C)C[C@H](O)[C@H](O)[C@H](CC1CCCCC1)NC(=O)[C@H](CC1CC1)C[C@@H](O)[C@H](O)Cc1ccccc1` [Corresponding (2R,4R,5R)-isomer of title compound of example 2] returned a 50% inhibitory concentration (IC50) of 38 nM. Regarding `CC(C)C[C@H](O)[C@H](O)[C@H](CC1CCCCC1)NC(=O)[C@H](CC1CC1)[C@H](O)C[C@@H](O)Cc1ccccc1` [Title compound of example 12, (2R, 3R, 5S)-N-[1(S)-(Cyclohexylmethyl)-2(R), 3(S)-dihydroxy-5-methylhexyl]-2-(cyclopropylmethyl)-3,5-dihydroxy-6-phenylhexanamide], the IC50 is 1000 nM. On the same count and under the same terms, with `CC(C)C[C@H](O)[C@H](O)[C@H](CC1CCCCC1)NC(=O)[C@H](CC1CC1)[C@@H](O)C[C@H](O)Cc1ccccc1` [Title compound of example 10, (2R,3S,5R)-N-[1(S)-(Cyclohexylmethyl)-2(R), 3(S)-dihydroxy-5-methylhexyl]-2-(cyclopropylmethyl)-3,5-dihydroxy-6-phenylhexanamide] the figure was 21 nM.

The same test, now with this note: values in parentheses in the list of other examples; assay not restated there.
With `Cc1nc(C[C@H](C[C@H](O)[C@@H](O)Cc2ccccc2)C(=O)N[C@@H](CC2CCCCC2)[C@@H](O)[C@@H](O)CC(C)C)cs1`, the IC50 turned out to be 220 nM. The same measure, in the same setting: with `CC(C)C[C@H](O)[C@H](O)[C@H](CC1CCCCC1)NC(=O)[C@H](Cc1cccs1)C[C@H](O)[C@@H](O)Cc1ccccc1` the figure was 485 nM.

Take `CC(C)C[C@H](O)[C@H](O)[C@H](CC1CCCCC1)NC(=O)[C@H](Cc1cnc[nH]1)C[C@@H](O)[C@H](O)Cc1ccccc1`: the IC50 is 173 nM.
